Target: Tyrosine-protein kinase ABL1 (Homo sapiens, UniProt P00519)
Test: Homogeneous Time-resolved Fluorescence (HTRF) Assay

Chain of Tyrosine-protein kinase ABL1 (P00519 whole entry): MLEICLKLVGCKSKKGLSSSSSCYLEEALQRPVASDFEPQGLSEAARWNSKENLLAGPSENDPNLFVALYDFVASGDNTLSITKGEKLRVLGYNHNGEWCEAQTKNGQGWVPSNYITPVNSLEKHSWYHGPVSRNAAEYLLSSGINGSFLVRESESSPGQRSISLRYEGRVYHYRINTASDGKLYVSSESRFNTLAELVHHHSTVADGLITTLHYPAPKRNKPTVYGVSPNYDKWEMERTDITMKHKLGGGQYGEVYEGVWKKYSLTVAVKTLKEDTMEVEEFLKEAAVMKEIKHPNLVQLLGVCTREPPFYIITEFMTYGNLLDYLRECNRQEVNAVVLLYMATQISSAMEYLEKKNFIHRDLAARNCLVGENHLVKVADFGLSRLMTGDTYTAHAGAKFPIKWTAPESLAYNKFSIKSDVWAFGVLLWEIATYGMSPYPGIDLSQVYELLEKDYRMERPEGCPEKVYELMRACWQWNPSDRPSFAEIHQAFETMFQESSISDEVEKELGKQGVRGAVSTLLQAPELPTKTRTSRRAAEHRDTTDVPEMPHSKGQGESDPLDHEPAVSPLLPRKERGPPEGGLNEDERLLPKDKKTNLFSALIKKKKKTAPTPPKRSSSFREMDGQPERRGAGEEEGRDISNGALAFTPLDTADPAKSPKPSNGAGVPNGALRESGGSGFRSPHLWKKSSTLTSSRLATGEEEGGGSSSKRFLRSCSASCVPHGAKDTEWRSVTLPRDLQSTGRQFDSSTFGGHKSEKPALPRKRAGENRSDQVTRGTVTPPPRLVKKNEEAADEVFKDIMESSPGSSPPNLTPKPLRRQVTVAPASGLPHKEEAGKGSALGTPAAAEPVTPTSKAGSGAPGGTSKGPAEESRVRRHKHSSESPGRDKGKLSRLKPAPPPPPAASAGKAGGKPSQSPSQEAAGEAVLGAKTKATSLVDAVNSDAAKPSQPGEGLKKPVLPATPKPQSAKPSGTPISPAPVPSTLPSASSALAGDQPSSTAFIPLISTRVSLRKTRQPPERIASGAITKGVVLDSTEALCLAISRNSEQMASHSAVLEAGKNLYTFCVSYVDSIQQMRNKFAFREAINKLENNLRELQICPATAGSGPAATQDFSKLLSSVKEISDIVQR

`COc1cc(Nc2c(C#N)cnc3cc(OC4CCN(C)CC4)c(OC)cc23)c(Cl)cc1Cl` [4-[(2,4-dichloro-5-methoxyphenyl)amino]-6-methoxy-7-[(1-methylpiperidin-4-yl)oxy]quinoline-3-carbonitrile] showed an IC50 of 89 nM.
For `COc1cc(Nc2c(C#N)cnc3cc(OCC4CCCCN4C)c(OC)cc23)c(Cl)cc1Cl` (centres undefined) [4-[(2,4-dichloro-5-methoxyphenyl)amino]-6-methoxy-7-[(1-methylpiperidin-2-yl)methoxy]quinoline-3-carbonitrile], the IC50 was 56 nM.
`COc1cc(Nc2c(C#N)cnc3cc(OCC4CCCN(C)C4)c(OC)cc23)c(Cl)cc1Cl` (centres undefined) [4-[(2,4-dichloro-5-methoxyphenyl)amino]-6-methoxy-7-[(1-methylpiperidin-3-yl)methoxy]quinoline-3-carbonitrile] gave an IC50 of 4.6 nM.
For `CCOc1cc(Nc2c(C#N)cnc3cc(OCC4CCN(C)CC4)c(OC)cc23)c(Cl)cc1Cl` [4-[(2,4-Dichloro-5-ethoxyphenyl)amino]-6-methoxy-7-[(1-methylpiperidin-4-yl)methoxy]quinoline-3-carbonitrile], the IC50 was 1500 nM.
